Assay results: ChEMBL document CHEMBL3352071, “Benzimidazoles: novel mycobacterial gyrase inhibitors from scaffold morphing” (ACS Med Chem Lett, 2014)
≈ marks a conversion by molar mass, not a printed value.

Columns and labels:
Format in all cases: functional
[1] = system: Mycobacterium tuberculosis; assay: Antimicrobial activity against 5-(((3S,4R)-3-fluoro-1-(2-(7-methoxy-2-oxo-1,5-naphthyridin-1(2H)-yl)ethyl)piperidin-4-ylamino)methyl)-2-methylnicotinonitrile resistant Mycobacterium tuberculosis H37Rv ATCC 27294 containing DNA gyrase D89N mutant
[2] = system: Mycobacterium tuberculosis; assay: Antimicrobial activity against moxicillin resistant Mycobacterium tuberculosis H37Rv ATCC 27294 containing DNA gyrase G88N mutant
[3] = system: Mycobacterium tuberculosis; assay: Antimicrobial activity against 2-oxo-1-(2-(4-((3-oxo-3,4-dihydro-2H-pyrido[3,2-b][1,4]oxazin-6-yl)methylamino)piperidin-1-yl)ethyl)-1,2-dihydroquinoline-7-carbonitrile resistant Mycobacterium tuberculosis H37Rv ATCC 27294 containing DNA gyrase A74V mutant

N#Cc1ccc2ccc(=O)n(CCN3CCC(NCc4ccc5c(n4)NC(=O)CO5)CC3)c2c1
MIC [1]: >100 µM
MIC [2]: <0.19 µM
MIC [3]: 4 µM (≈ 1.83 µg/mL)

COc1cnc2ccc(=O)n(CCN3CCC(c4nc5cc(C(F)(F)F)ccc5[nH]4)CC3)c2c1
MIC [1]: 25 µM (≈ 11.8 µg/mL)
MIC [2]: 0.78 µM (≈ 0.368 µg/mL)
MIC [3]: 50 µM (≈ 23.6 µg/mL)

COc1cnc2ccc(=O)n(CCN3CCC(c4nc5cc(Cl)c(F)cc5[nH]4)CC3)c2c1
MIC [1]: 25 µM (≈ 11.4 µg/mL)
MIC [2]: 0.06 µM (≈ 0.0274 µg/mL)
MIC [3]: 100 µM (≈ 45.6 µg/mL)

COc1cnc2ccc(=O)n(CCN3CCC(c4nc5cc(C#N)c(C)cc5[nH]4)CC3)c2c1
MIC [1]: 100 µM (≈ 44.3 µg/mL)
MIC [2]: 0.78 µM (≈ 0.345 µg/mL)
MIC [3]: >100 µM

COc1cnc2ccc(=O)n(CCN3CCN(c4nc5cc(C#N)c(C)cc5[nH]4)CC3)c2c1
MIC [1]: 100 µM (≈ 44.4 µg/mL)
MIC [2]: 1.56 µM (≈ 0.692 µg/mL)
MIC [3]: >100 µM

NS(=O)(=O)c1ccc(Oc2cnc3ccc(=O)n(CCN4CCC(c5nc6cc(C(F)(F)F)ccc6[nH]5)CC4)c3c2)cc1
MIC [1]: 12.5 µM (≈ 7.66 µg/mL)
MIC [2]: 0.39 µM (≈ 0.239 µg/mL)
MIC [3]: 25 µM (≈ 15.3 µg/mL)

O=c1ccc2ncc(F)cc2n1CCN1CCC(NCc2ccc(C(F)(F)F)nc2)CC1
MIC [1]: >100 µM
MIC [2]: <0.19 µM
MIC [3]: 2 µM (≈ 0.899 µg/mL)

O=C(O)c1cn(C2CC2)c2cc(N3CCNCC3)c(F)cc2c1=O [CIPROFLOXACIN]
MIC [1]: 16 µM (≈ 5.3 µg/mL)
MIC [2]: 8 µM (≈ 2.65 µg/mL)
MIC [3]: 0.5 µM (≈ 0.166 µg/mL)

NNC(=O)c1ccncc1 [ISONIAZID]
MIC [1]: 0.03 µM (≈ 0.00411 µg/mL)
MIC [2]: 0.06 µM (≈ 0.00823 µg/mL)
MIC [3]: 0.06 µM (≈ 0.00823 µg/mL)

COc1c(N2C[C@@H]3CCCN[C@@H]3C2)c(F)cc2c(=O)c(C(=O)O)cn(C3CC3)c12 [MOXIFLOXACIN]
MIC [1]: 2 µM (≈ 0.803 µg/mL)
MIC [2]: 4 µM (≈ 1.61 µg/mL)
MIC [3]: 0.25 µM (≈ 0.1 µg/mL)

CO[C@H]1/C=C/O[C@@]2(C)Oc3c(C)c(O)c4c(O)c(c(/C=N/N5CCN(C)CC5)c(O)c4c3C2=O)NC(=O)/C(C)=C\C=C\[C@H](C)[C@H](O)[C@@H](C)[C@@H](O)[C@@H](C)[C@H](OC(C)=O)[C@@H]1C [RIFAMPIN]
MIC [2]: 0.008 µM (≈ 0.00658 µg/mL)
MIC [3]: 0.008 µM (≈ 0.00658 µg/mL)
